Values of other authors in patent US6376531B1, “Method of treatment using deuterium compounds” (priority 1998, dated 2002).

Assays:
mice = conditions: Hayes and Palmer 1976, 1972
mouse = conditions: Hayes and Palmer, Experientia 1976

Compound | solubility in aqueous solutions | solubility in water | also measured
NCCc1c[nH]c2ccccc12 [Tryptamine] | practically insoluble |  | 
N[C@@H](Cc1c[nH]c2ccccc12)C(=O)O [Tryptophan] |  | soluble | 
NC[C@H](O)c1ccc(O)c(O)c1 [Norepinephrine] | freely soluble |  | 
N[C@@H](Cc1c[nH]c2ccc(O)cc12)C(=O)O [5-hydroxytryptophan] | soluble |  | 
COc1ccc2[nH]cc(CCNC(C)=O)c2c1 [Melatonin] | soluble | soluble | 
[2H]O[2H] [Deuterium oxide] |  |  | effect on the period and entrainment of the light-dark (LD) cycle (mice): chronomutagenic effect; spontaneous locomotor activity (mouse): suppressed
NCCc1c[nH]c2ccc(O)cc12 [Serotonin] | soluble |  | 
CSCC[C@H](N)C(=O)O [Methionine] |  | soluble | 
